Test results from US12239720B2, “Compositions for use in lysis of selective cancer cells” (ONCOLYZE, INC., priority 2018, dated 2025).

Tested on: cancer cells
Experiment: Tumor cell necrosis of cancer cells versus normal cells (general statement)
Type: cell-based
Details: cancer cells vs normal cells; statement in the description, no data shown
Experimental: PNC-27 or PNC-28 is incubated with 6×10^6 cancer cells, for example, Mia-PaCa-2 cells, for 5 days at concentrations ranging from 0.001-750 μM. At different timepoints following treatment the cells are assessed for signs of necrosis, for example, membrane blebbing and disruption and formation of cell clumps coalescing into aggregates of cellular debris. Percent cell death is determined by measuring trypan blue dye uptake. Cancer cells are also treated with the negative control peptide PNC-29 and, separately, a peptide having only the p53 derived portion of PNC-27 or PNC-28 that cannot traverse the cell membrane due to the lack of the MRP peptide, administered at the same concentration as the test peptide. The effect of these control peptides on cellular growth, morphology and viability is determined.
As an additional control, PNC-27 or PNC-28 is combined with untransformed BMRPA1 acinar cells and with the untransformed breast epithelial cell line, MCF-10-2A at a concentration ranging from 0.001-750 μM to determine if the peptide is lethal to normal cell growth.

Row | Sequence | tumor cell necrosis
1 | ETFSDLWKLLKKWKMRRNQFWVKVQRG [PNC-28, p53 aa17-26-MRP] | induce tumor cell necrosis of cancer cells, but not normal cells
2 | PPLSQETFSDLWKLLKKWKMRRNQFWVKVQRG [PNC-27] | induce tumor cell necrosis of cancer cells, but not normal cells
